pKi: −log10 of the molar value.
Assays:
AD brain-enriched PHF = AD brain-enriched PHF (Homo sapiens, UniProt P10636); experiment: Assay 2 (filter trap): [3H]RefA radio-binding competition assay and Ki on PHF; conditions: [^3H]RefA 10 nM; for inhibition at 2.5 µM: compound 2.5 μM, no Ki determined
Procedure: Displacement of [^3H]RefA by Compounds of this Invention
50 g of frontal lobe tissue from post-mortem brain of an Alzheimer's disease (AD) patient were obtained from the London Tissue Bank. The patient was a […] and died […]. The brain sample was collected 5 hours post-mortem and characterized for Braak disease stage (Braak, H.; Braak, E. Acta Neuropathol., 1991, 82, 239-259) as stage VI. For the enrichment of PHF's, around 15 g of the AD human brain was thawed on ice and homogenized with 50 ml of homogenization buffer [0.75 M NaCl in RAB buffer (100 mM 2-(N-morpholino) ethanesulfonic acid (MES), 1 mM EGTA, 0.5 mM MgSO4, 2 mM DTT, pH 6.8) supplemented with protease inhibitors (Complete; Roche 11697498001) in a glass Dounce homogenizer. The homogenate was then incubated at 4° C. for 20 min to let any residual microtubules depolymerize, before the homogenate was transferred into polycarbonate centrifuge bottles (16×76 mm; Beckman 355603) and centrifuged at 11,000 g (12,700 RPM) in an ultracentrifuge (Beckman, XL100K) for 20 min at 4° C. using the pre-cooled 70.1 rotor (Beckman, 342184). Pellets were kept on ice. Supernatants were pooled into polycarbonate bottles and centrifuged again at 100,000 g (38,000 RPM) for 1 h at 4° C. in the 70.1 Ti rotor to isolate PHF-rich pellets, whereas soluble tau remained in the supernatants. The pellets from the first and second centrifugations were re-suspended in 120 mL of extraction buffer [10 mM Tris-HCl pH 7.4, 10% sucrose, 0.85 M NaCl, 1% protease inhibitor (Calbiochem 539131), 1 mM EGTA, 1% phosphatase inhibitor (Sigma P5726 and P0044)]. The solution was then transferred into polycarbonate centrifuge bottles (16×76 mm; Beckman 355603) and centrifuged at 15,000 g (14,800 RPM) in an ultracentrifuge (Beckman, XL100K) for 20 min at 4° C. using the 70.1 Ti rotor. In the presence of 10% sucrose and at low speed centrifugation, most PHF remained in the supernatant whereas intact or fragmented NFTs and larger PHF aggregates were pelleted. The pellets were discarded. 20% Sarkosyl (Sigma L7414-10ML) was added to the supernatants to a final concentration of 1% and stirred at room temperature for 1 h. This solution was then centrifuged into polycarbonate bottles at 100,000 g (38,000 RPM) for 1 h at 4° C. in the 70.1 Ti rotor, and the pellets containing PHF-rich material were re-suspended in a total final volume of 1.5 mL of PBS, aliquoted and stored at −80° C.
[^3H]RefA Radio-Binding Competition Assay
AD brain-enriched PHF diluted 1/80 were incubated in the presence of [^3H]RefA at 10 nM and the example compounds of this invention at 2.5 μM (250× excess), for 45 minutes at 37° C. Samples were then analyzed by on GF/B filter plates as described above (in the section “[^3H]RefA radio-binding assay and determination of the dissociation constant (Kd)). Non-specific signal was determined again with an excess of un-labeled RefA and specific binding calculated by subtracting the non-specific signal from the total signal. Competition was calculated as percent, where 0% was defined as the specific binding in the presence of vehicle (2.8% DMSO in PBS) and 100% as the values obtained in the presence of excess cold RefA. Similar assays were performed to determine the competition of the cold compounds on [^3H]RefA on in vitro aggregated recombinant human tau or Abeta1-42 For both recombinant proteins, 20 μg/mL of aggregates were incubated with 10 nM of [^3H]RefA for recombinant human tau or 80 nM of [^3H]RefA for recombinant human Abeta1-42.
Determination of the Binding Affinity (Ki)
Samples were then analyzed on GF/B filter plates as described above and Ki values calculated using Prism V5 (GraphPad).

[1] = tested on: tau tangles/Aβ plaques on AD brain sections; experiment: Assay 1: direct staining of human Alzheimer's disease brain sections (fluorescence); format: binding; design: key to Direct staining of tau tangles/Aβ plaques on AD brain sections at 100 μM / Direct staining of tau tangles on AD brain sections at 100 μM / Direct staining of Aβ plaques on AD brain sections at 100 μM / Direct staining of tau tangles on AD brain sections (footnote a: at 250 μM): − (No); +++ (strong); ++ (good); + (weak); conditions: 100 μM compound; for Direct staining of tau tangles/Aβ plaques on AD brain sections at 100 μM: human AD brain sections, fluorescence, cell does not say tangles or plaques
Procedure: Assay 1 (Fluorescence Based Assay):
(§1) Direct Binding of Compounds of this Invention to Human Alzheimer's Disease Brain Sections and/or Displacement of RefA and Compound B
(§2) Frozen sections with a thickness of […] from the amygdala of donors diagnosed with Braak stage V-VI Alzheimer's Disease (Braak, H.; Braak, E. Acta Neuropathol., 1991, 82, 239-259), were purchased from a commercial provider (Tissue Solutions) and kept at −80° C. until use.
Direct Staining of Human Alzheimer's Disease Brain Sections
Brain sections were encircled with pap pen liquid blocker to reduce the volume of solution for the different incubations. Sections were fixed for 15 min at 4° C. with 4% paraformaldehyde and washed three times 5 minutes with PBS at room temperature. […] To reduce the auto-fluorescence of the tissue, the sections were incubated in a solution of 0.1% Sudan Black (Sigma 199664) in 70% ethanol for 15 min at room temperature in the dark, washed four times for 5 minutes with PBS, and mounted using ProLong Gold Antifade reagent (Invitrogen P36930). Sections were then analyzed on the Nikon Eclipse Ti microscope to detect staining and imaged using Nikon DS-Fi2 camera and NIS-Element AR4.13.1 software.

[2] = tested on: Aβ plaques on AD brain section; experiment: Assay 1: displacement of Compound B on human AD brain sections (fluorescence); format: binding
Procedure: Direct Binding of Compounds of this Invention to Human Alzheimer's Disease Brain Sections and/or Displacement of RefA and Compound B Frozen sections with a thickness of […] from the amygdala of donors diagnosed with Braak stage V-VI Alzheimer's Disease (Braak, H.; Braak, E. Acta Neuropathol., 1991, 82, 239-259), were purchased from a commercial provider (Tissue Solutions) and kept at -80° C. until use. Displacement of RefA and Compound B Brain sections were mainly treated as described above. Test compounds were, however, incubated on the section at 250 μM in 50% ethanol for 20 min at room temperature, and then directly incubated with the fluorescent reference compounds RefA and Compound B, each at 1 μM in 50% ethanol for 20 min at room temperature. RefA and Compound B stainings were visualized using the 470 nm and 365 nm excitation filters, respectively. Images were acquired, and tangles and plaques quantified using the NIS-Element software. Only those compounds not directly staining tangles or plaques at the same wavelengths as RefA and Compound B were tested in the displacement assay. Structure of Compound B (prepared by a similar procedure described for […] in WO2010/011964): […]

[3] = tested on: tau tangles on AD brain section; experiment: Assay 1: displacement of RefA on human AD brain sections (fluorescence); format: binding; conditions: for Selectivity (tau/Abeta): ratio of competition on tau tangles to competition on Aβ plaques
Procedure: as §1, §2
Displacement of RefA and Compound B
Brain sections were mainly treated as described above. Test compounds were, however, incubated on the section at 250 μM in 50% ethanol for 20 min at room temperature, and then directly incubated with the fluorescent reference compounds RefA and Compound B, each at 1 μM in 50% ethanol for 20 min at room temperature. RefA and Compound B stainings were visualized using the 470 nm and 365 nm excitation filters, respectively. Images were acquired, and tangles and plaques quantified using the NIS-Element software. Only those compounds not directly staining tangles or plaques at the same wavelengths as RefA and Compound B were tested in the displacement assay.
Structure of RefA (Tago et al., J. Label. Compd. Radiopharm. 2013, DOI: 10.1002/jlcr.3133)

AD brain-enriched PHF, sequence (P10636 623-708 limits assumed): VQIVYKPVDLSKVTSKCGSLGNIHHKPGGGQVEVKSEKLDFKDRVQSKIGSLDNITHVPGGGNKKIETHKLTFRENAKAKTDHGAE

Compound | inhibition at 2.5 µM (AD brain-enriched PHF) | Direct staining of tau tangles on AD brain sections at 100 μM [1] | Competition on AD brain section Aβ plaques (1 μM Compound B vs 250 μM compound) [2] | Direct staining of tau tangles/Aβ plaques on AD brain sections at 100 μM [1] | Competition on AD brain section tau tangles (1 μM RefA vs. 250 μM compound) [3] | other results
Cn1c2c(c3ccc(Nc4ccc(F)c(F)c4)nc31)C(=O)N(CCCN)CC2 [212 Step F] | < 50% |  |  |  |  | 
Cn1c2ccncc2c2ccc(Nc3cncc(OCCOCCF)c3)nc21 [Example 65] |  | ++ (tangles) | 35% |  |  | 
Cn1c2ccncc2c2ccc(Nc3cccc(OCCOCCOCCF)c3)nc21 [Example 96] |  | ++ (tangles) | 18% |  |  | 
Cn1c2ccncc2c2ccc(Nc3c(F)cccc3N3CCOCC3)nc21 [Example 15] | < 50% |  |  |  |  | 
Cn1c2ccncc2c2ccc(N3CCC(CCF)CC3)nc21 [Example 151] |  |  | 42% | − | 99% | Selectivity (tau/Abeta) [3]: ~2.4-fold
Cn1c2ccncc2c2ccc(Nc3cccc(OCCF)n3)nc21 [Example 44] |  | ++ (tangles) | −21% |  | 88% | Selectivity (tau/Abeta) [3]: >88 fold
Cn1c2ccncc2c2ccc(Nc3cccc(OC(F)(F)F)c3)nc21 [Example 13] |  |  |  |  |  | pKi (AD brain-enriched PHF; PHF diluted 1/80, compound 0.12 nM to 50 μM): 6.77
Cn1c2c(c3ccc(Nc4ccc(F)c(F)c4)nc31)C(=O)NCC2 [Example 174] | < 50% |  |  | − |  | 
Cn1c2ccncc2c2ccc(Nc3ccnn3CCF)nc21 [Example 46] |  |  |  | − | 55% | 
Cn1c2ccncc2c2ccc(Nc3cccc(NCCF)n3)nc21 [Example 78] |  | ++ (tangles) |  |  | 91% | 
CN1CCc2c(c3ccc(Nc4ccc5ncn(C)c5c4)nc3n2C)C1=O [Example 172] | < 50% |  |  | − | 16% | 
COc1cc(Nc2ccc3c4c(n(C)c3n2)CCN(C)C4=O)ccc1C [Example 171] | < 50% |  |  | − |  | 

From US10662193B2, “Carbazole and carboline compounds for use in the diagnosis, treatment, alleviation or prevention of disorders associated with amyloid or amyloid-like proteins” (AC IMMUNE SA, priority 2014, dated 2020)
